Where a SMILES comes first, the peptide text is derived from it.
biological target: HLA B*1503 (Homo sapiens, UniProt P01889, A329T/A93T/A95T/C349S/D201E/D98Y/E187L/E204Q/K202T/N87E/Q94N/R155S/R180L/S121R/S35A/V306I/V36M/Y140S/Y91S); assay: biochemical; assay type: binding

Point of comparison: CSCC[C@H](NC(=O)[C@H](C)N)C(=O)N[C@@H](CCCCN)C(=O)N[C@H](C(=O)N[C@@H](CC(=O)O)C(=O)N[C@@H](C)C(=O)N[C@@H](CC(N)=O)C(=O)N[C@@H](Cc1ccc(O)cc1)C(=O)N[C@@H](Cc1ccccc1)C(=O)O)C(C)C [3102.1268] (H-AMKVDANYF-OH), IC50 0.15 nM. Against it:
- CC[C@H](C)[C@H](NC(=O)[C@H](CO)NC(=O)[C@H](C)NC(=O)[C@H](Cc1ccccc1)NC(=O)[C@H](CO)NC(=O)CNC(=O)[C@H](CO)NC(=O)[C@@H](N)Cc1ccccc1)C(=O)N[C@@H](Cc1ccccc1)C(=O)O [3102.1222] (H-FSGSFASIF-OH) — 2.1-fold higher, 0.32 nM
- CC[C@H](C)[C@H](NC(=O)[C@@H](NC(=O)[C@H](CC(C)C)NC(=O)[C@H](CCSC)NC(=O)[C@H](CCCCN)NC(=O)[C@@H](N)CC(N)=O)[C@@H](C)O)C(=O)N[C@H](C(=O)N[C@@H](CO)C(=O)N[C@@H](Cc1ccccc1)C(=O)O)[C@@H](C)O [3102.1234] (H-NKMLTITSF-OH) — 9.3-fold higher, 1.4 nM
- CSCC[C@H](NC(=O)[C@H](CCCCN)NC(=O)[C@@H](N)CCCCN)C(=O)N[C@H](C(=O)N[C@@H](CS)C(=O)NCC(=O)N[C@@H](CCC(N)=O)C(=O)N1CCC[C@H]1C(=O)N[C@@H](CC(C)C)C(=O)O)[C@@H](C)O [3102.1121] (H-KKMTCGQPL-OH) — 10-fold higher, 1.5 nM
- CC(C)[C@H](NC(=O)[C@@H](NC(=O)[C@H](CC(=O)O)NC(=O)[C@H](CO)NC(=O)[C@H](CCC(N)=O)NC(=O)[C@H](CO)NC(=O)[C@H](CCCCN)NC(=O)[C@H](C)N)[C@@H](C)O)C(=O)N[C@@H](Cc1ccccc1)C(=O)O [3102.1191] (H-AKSQSDTVF-OH) — within 1.5-fold, 0.16 nM
- CSCC[C@H](NC(=O)[C@H](CC(C)C)NC(=O)[C@H](CO)NC(=O)[C@H](CC(N)=O)NC(=O)[C@H](CC(N)=O)NC(=O)[C@H](CC(C)C)NC(=O)[C@@H](N)CS)C(=O)N[C@@H](CO)C(=O)N[C@@H](Cc1ccccc1)C(=O)O [3102.1050] (H-CLNNSLMSF-OH) — 5.1-fold higher, 0.77 nM
- CC(C)C[C@H](N)C(=O)N[C@@H](CCCCN)C(=O)N[C@@H](CO)C(=O)N1CCC[C@H]1C(=O)N[C@@H](CCCCN)C(=O)N[C@@H](CCCNC(=N)N)C(=O)N[C@@H](CS)C(=O)N[C@@H](CO)C(=O)N[C@@H](Cc1ccccc1)C(=O)O [3102.1282] (H-LKSPKRCSF-OH) — 18-fold higher, 2.7 nM
- CC[C@H](C)[C@H](NC(=O)[C@H](CC(=O)O)NC(=O)[C@@H](NC(=O)[C@H](Cc1ccccc1)NC(=O)[C@@H](NC(=O)[C@H](CCCCN)NC(=O)[C@@H](N)Cc1ccc(O)cc1)C(C)C)[C@@H](C)O)C(=O)N[C@@H](CO)C(=O)N[C@@H](CCSC)C(=O)O [3102.1298] (H-YKVFTDISM-OH) — 15-fold higher, 2.2 nM
- CC(C)C[C@H](NC(=O)[C@H](CO)NC(=O)[C@@H]1CCCN1C(=O)[C@H](CO)NC(=O)[C@H](Cc1ccccc1)NC(=O)[C@H](CO)NC(=O)[C@@H](NC(=O)[C@H](CO)NC(=O)[C@@H](N)Cc1ccccc1)C(C)C)C(=O)O [3102.1332] (H-FSVSFSPSL-OH) — 150-fold higher, 22 nM
- CC[C@H](C)[C@H](NC(=O)[C@H](CC(N)=O)NC(=O)[C@H](CC(C)C)NC(=O)[C@H](Cc1ccccc1)NC(=O)[C@H](CC(C)C)NC(=O)[C@@H](N)Cc1ccccc1)C(=O)N[C@@H](CC(N)=O)C(=O)N[C@@H](Cc1c[nH]cn1)C(=O)N[C@@H](Cc1ccc(O)cc1)C(=O)O [3102.1309] (H-FLFLNINHY-OH) — 43-fold higher, 6.5 nM
- CC[C@H](C)[C@H](N)C(=O)N[C@@H](CCSC)C(=O)N[C@H](C(=O)N[C@@H](CO)C(=O)NCC(=O)N[C@H](C(=O)N[C@H](C(=O)N1CCC[C@H]1C(=O)N[C@@H](Cc1ccccc1)C(=O)O)[C@@H](C)CC)C(C)C)[C@@H](C)O [3102.1305] (H-IMTSGVIPF-OH) — within 1.5-fold, 0.22 nM
- CC[C@H](C)[C@H](NC(=O)[C@H](CO)NC(=O)[C@H](CC(=O)O)NC(=O)[C@H](CO)NC(=O)[C@H](CC(N)=O)NC(=O)[C@H](CCC(N)=O)NC(=O)[C@H](CCC(N)=O)NC(=O)[C@@H](N)CO)C(=O)N[C@@H](Cc1ccccc1)C(=O)O [3102.1340] (H-SQQNSDSIF-OH) — 13-fold higher, 1.9 nM
- CSCC[C@H](NC(=O)[C@@H](N)CCSC)C(=O)N[C@H](C(=O)N[C@@H](CO)C(=O)N[C@H](C(=O)N[C@@H](CCC(=O)O)C(=O)N[C@@H](CC(N)=O)C(=O)N[C@@H](CC(N)=O)C(=O)N[C@@H](CC(C)C)C(=O)O)[C@@H](C)O)C(C)C [3102.1183] (H-MMVSTENNL-OH) — 73-fold higher, 11 nM
- CC[C@H](C)[C@H](NC(=O)[C@H](Cc1ccc(O)cc1)NC(=O)[C@H](CCC(N)=O)NC(=O)[C@@H](N)Cc1ccc(O)cc1)C(=O)N[C@@H](Cc1ccccc1)C(=O)N[C@@H](CC(C)C)C(=O)N[C@@H](CO)C(=O)N[C@@H](Cc1ccccc1)C(=O)N[C@@H](Cc1ccccc1)C(=O)O [3102.1259] — 6.3-fold higher, 0.94 nM
- CC(C)C[C@H](NC(=O)[C@H](CC(C)C)NC(=O)[C@@H](NC(=O)[C@H](CO)NC(=O)[C@H](CO)NC(=O)[C@H](CCCCN)NC(=O)[C@@H](N)CCCCN)[C@@H](C)O)C(=O)N[C@H](C(=O)N[C@@H](Cc1ccccc1)C(=O)O)[C@@H](C)O [3102.1189] (H-KKSSTLLTF-OH) — 2.4-fold higher, 0.36 nM
- CC[C@H](C)[C@H](NC(=O)[C@H](CC(C)C)NC(=O)[C@@H](NC(=O)[C@H](CO)NC(=O)[C@@H](NC(=O)[C@H](CCCCN)NC(=O)[C@H](C)N)[C@@H](C)O)[C@@H](C)O)C(=O)N[C@@H](Cc1ccccc1)C(=O)N[C@@H](Cc1ccccc1)C(=O)O [3102.1088] (H-AKTSTLIFF-OH) — 11-fold higher, 1.6 nM
- CC[C@H](C)[C@H](NC(=O)[C@H](CC(N)=O)NC(=O)[C@@H](NC(=O)[C@H](CCCCN)NC(=O)[C@@H](N)Cc1ccccc1)[C@@H](C)CC)C(=O)N[C@@H](Cc1ccccc1)C(=O)N[C@@H](CCSC)C(=O)N[C@@H](C)C(=O)N[C@@H](Cc1ccccc1)C(=O)O [3102.1074] (H-FKINIFMAF-OH) — 67-fold higher, 10 nM
- CSCC[C@H](NC(=O)[C@@H](N)CS)C(=O)N[C@@H](CO)C(=O)N[C@@H](CC(N)=O)C(=O)N[C@@H](CO)C(=O)N[C@@H](CCCNC(=N)N)C(=O)N[C@@H](CC(C)C)C(=O)N[C@@H](CO)C(=O)N[C@@H](Cc1ccccc1)C(=O)O [3102.1225] (H-CMSNSRLSF-OH) — 6.7-fold higher, 1 nM
- CC(C)C[C@H](NC(=O)[C@@H](N)CC(N)=O)C(=O)N[C@@H](Cc1ccc(O)cc1)C(=O)N[C@@H](Cc1ccccc1)C(=O)N[C@@H](CS)C(=O)N[C@H](C(=O)N[C@@H](CCCCN)C(=O)N[C@@H](CO)C(=O)N[C@@H](Cc1ccccc1)C(=O)O)[C@@H](C)O [3102.1057] (H-NLYFCTKSF-OH) — 29-fold higher, 4.3 nM
- CC(C)[C@H](NC(=O)[C@H](Cc1ccc(O)cc1)NC(=O)[C@H](CCC(N)=O)NC(=O)[C@@H](N)Cc1ccccc1)C(=O)N[C@@H](CO)C(=O)N[C@@H](Cc1ccc(O)cc1)C(=O)N[C@@H](CO)C(=O)N[C@@H](CC(N)=O)C(=O)N[C@@H](Cc1ccccc1)C(=O)O [3102.1128] (H-FQYVSYSNF-OH) — 1.7-fold higher, 0.26 nM
- CC[C@H](C)[C@H](NC(=O)[C@@H](NC(=O)[C@H](CCSC)NC(=O)[C@@H](N)CO)C(C)C)C(=O)N[C@@H](CO)C(=O)N[C@@H](CC(C)C)C(=O)N[C@@H](CC(C)C)C(=O)N[C@@H](CO)C(=O)N[C@@H](CCSC)C(=O)O [3102.1140] (H-SMVISLLSM-OH) — 53-fold higher, 8 nM
- CC(C)C[C@H](NC(=O)[C@@H](NC(=O)[C@H](CC(N)=O)NC(=O)[C@@H]1CCCN1C(=O)[C@@H]1CCCN1C(=O)[C@H](CO)NC(=O)[C@@H](NC(=O)[C@H](CO)NC(=O)[C@@H](N)CO)C(C)C)C(C)C)C(=O)O [3102.1131] (H-SSVSPPNVL-OH) — 120-fold higher, 18 nM

— article PMC2248166, “Quantitative peptide binding motifs for 19 human and mouse MHC class I molecules derived using positional scanning combinatorial peptide libraries” (Immunome Research, 2008)
